Laboratory results reported in US4891319A, “Protection of proteins and the like” (Quadrant Bioresources Limited, priority 1985, dated 1990).

Tests used:
Rh D antigen = test: titrated haemagglutination assay of dried human IgM anti-Rh D antibody; format: cell-based; details: for % activity retained in HA titre: dried antibody, sugar at 5% final concentration
From the text: (§1) They can then be stored at room temperature indefinitely.
3. Trehalose preserves 100% of the antibody activity. A test of five sugars all used at 5% final concentration in a titrated haemagglutination assay gave the following results.
(§2) An additional titration was done to establish whether there is an optimum concentration of trehalose for preservation. The antibodies tested were mouse monoclonal IgM anti A antibody, a mouse monoclonal IgM anti B antibody and a human monoclonal IgM anti Rh antibody used above. They were diluted to an appropriate starting concentration as follows: mouse anti A 1:10, mouse anti B 1:10, human anti Rh (to a final concentration of 20μg/ml). These were titrated 1:3 across a 96 well microtitre plate in Dulbecco's phosphate buffered saline (PBS) in a final volume of 50μl. To each horizontal 8 well row was added 50μl of trehalose at concentrations ranging from 10% w/v to 0.1% w/v. The wells were then dried at 37° overnight. Next day the wells were rehydrated with 100μl distilled water containing buffer sufficient to restore isotonicity. Then 50μl aliquots were transferred to a v-bottom microtitre plate and 25μl of 1% washed human red cells carrying the appropriate blood group antigens added and mixed. Haemagglutination titres were read after 2-3 hours at room temperature. […] With the anti Aantibody any trehalose concentration above 1% preserved maximal activity and with the anti B antibody any concentration above 0.5% preserved maximum activity.

rat IgG = test: indirect haemagglutination titre of K237 antiserum dried on matrices and eluted; format: cell-based; details: dried on Whatman No. 1 cellulose paper
Experimental: A number of different matrices were examined for use as a trehalose support. They include pure cellulose paper (Whatman No. 1 filter paper), glass fibre paper (What man GF/A and GF/C papers), polyurethane sponge foam and porous polyethylene sheet. These matrices were soaked in trehalose dissolved in distilled water at various concentrations from 10% down to 1% and dried at 37°. […] Various sera were applied to the paper and dried at 37°. After various periods of storage at 37+, samples were eluted with distilled water or normal saline; usually used in a volume 2-4 times that of the original serum sample so that their potency could be directly compared with fresh non-dried samples of the same sera.
K237, a sheep antiserum against rat IgG, was dried on to 10% trehalose-impregnated cellulose paper, glass fibre paper and porous polyethylene sheet and stored for 7 days at 37° C.
The paper or sheet was eluted with 4 volumes of normal saline and titrated in an indirect haemagllutination assay for its ability to agglutinate DA strain rat erythrocytes coated with a monoclonal antibody (JN2/85) against the class 1 antigens expressed on the erythrocyte membranes.
The same antiserum was then tested by drying on the Whatman No. 1 cellulose paper in the presence of various sugars and in the absence of sugar.

R-phycoerythrin = test: Fluorescence of R-phycoerythrin after drying with or without trehalose; format: physicochemical, marine Rhodophyte; details: trehalose-containing samples, stored in the dark for 10 months
Experimental: The phycobiliprotein R-phycoerythrin was purified from a marine Rhodophyte. This brilliantly fluorescent red protein was blotted onto nitrocellulose membrane or glass fibre filter paper in phosphate buffer with and without 10% w/v added trehalose and dried at room temperature.
R-phycoerythrin at 5 mg/ml was dried at 37° on glass fibre filter paper (Whatman GF/C), cellulose filter paper (Whatman No. 1) or on nitrocellulose membrane (Schleicher & Schull 0.45μ pore size) in the presence of 5% trehalose in solution and in its absence. In the absence of trehalose the spots of dried R-phycoerythrin changed colour to a purplish red and lost >90% of their fluorescence intensity.

A blood group substance = test: titrated haemagglutination assay of dried mouse IgM anti A antibody; format: cell-based, human; details: dried at 37° overnight
Experimental: as §1, §2

B blood group substance = test: titrated haemagglutination assay of dried mouse IgM anti B antibody; format: cell-based, human; details: dried at 37° overnight
Experimental: as §1, §2

rat IgG immunoglobulin = test: indirect agglutination titre of dried or fresh sheep antiserum K237; format: cell-based
Experimental: A sheep antiserum to rat IgG immunoglobulin (K237) was titrated in a 96 well flat bottom microtitre plate as 1:3 steps (25μl serum in 50μl PBS). 50μl of 5% w/v trehalose in D.W was then added and the plate dried at 37° in a warm room for 48 hr.
The wells were reconstituted with 100μl distilled water. 50μl of the contents of each well were transferred to v bottom microtitre plates, DA rate erythrocytes were washed ×3 in saline and sensitized by incubation for 2 hr at RT with tissue culture supernatant of the monoclonal antibody R3/13 HLK which is specific for the A^a class 1 transplantation antigen on DA erythrocytes. The red cells were then washed x3 in saline and resuspended at 1% v/v in PBS +1% BSA. The sensitized rat erythrocytes were added. At the same time fresh K237 serum was titrated as above as a positive non-dried control.
The capacity for the dried and fresh serum to cause indirect agglutination of the red cells sensitized by the rat antibody R3/13 was then read.

rat lymphocytes = test: Fluorescence microscopy of labelled rat lymphocytes; format: cell-based; details: dried with 10% added trehalose
From the text: Fluorescence microscopy using R-phycoerythrin as the fluorochrome was previously very inefficient because of fluorescence fading in aqueous mountants. This can be prevented by drying of the preparation and mounting in a non-polar mountant such as Gurr's Fluoromount, but drying destroys more than 90% of the fluorescence of R-phycoerythrin. This is prevented by drying in the presence of trehalose in the final buffer.
The anti CD4 monoclonal antibody W3/25 was coupled with biotin-linker-arm N-hydroxysuccinimide ester and used in saturating doses to label the T helper subset of rat lymphocytes. These labelled cells were then detected with a second stage staining using a streptavidin-R-phycoerythrin conjugate. After a final wash the cells were divided into four aliquots and one was examined in the FACS to illustrate correct labelling with these reagents. […] Smears were made and dried and then mounted in Fluoromount. The fourth aliquot was mounted wet in PBS. All three preparations were examined in a Zeiss photomicroscope II with Ploem optics.

[1] = system: alkaline phosphate from calf intestine; test: Preservation of dried alkaline phosphatase activity; format: biochemical; details: dried at 37° with 5% trehalose, 4 weeks at room temperature
Experimental: The mammalian enzyme alkaline phosphate from calf intestine was serially diluted in phosphate buffered saline (PBS) and added to the wells of a NUNC Immunoplate. After overnight incubation to bind the enzyme to the plastic surface, the wells were washed, shaken free of liquid, and dried at 37° in the presence or absence of 5% trehalose in distilled water. […] At the end of this time the wells were rehydrated with distilled water and substrate added. A positive control consisted of fresh dilutions of the enzyme. The activity of one enzyme was measured by the standard test of […] p-nitrophenylphosphate and monitoring the optical density at 405 nm.

[2] = system: guinea pig serum complement; test: CH50 assay, preservation of dried serum complement; format: cell-based
Experimental: Guinea pig serum was prepared fresh and frozen in aliquots at -196° until use. As target cells, washed sheep erythrocytes (SRBC) which had been stored in Alsever's solution for up to 2 weeks were incubated with the bovine monoclonal anti-Forrsman antibody 94A1-AZA for 1 hr at 4° and then washed in complement fixation diluent (CFD). Freshly thawed guinea pig serum was diluted in CFD where required in flat bottom microtitre plate (NUNC, Denmark) and trehalose added at various concentrations. […] For the CH50 assay (P.J. Lachmann and M.J. Hobart in "Handbook of Experimental Immunology" ed. D.M. Weir, Blackwell 1978), dried or fresh complement was titrated out in a U bottom microtitre plate and sensitised SRBC added to a final concentration of 2%. […] The endpoint was measured as the cup in which 50% of the erythrocytes remained as a button.

fixed red cells = test: Drying of antigen- or antibody-coupled fixed red blood cells; format: cell-based; details: dried in the presence of trehalose
From the text: Upon rehydration the coupled, fixed red cells can be resuspended to form a perfect single cell suspension which then behaves as a fresh red cell suspension does in haemagglutination assays.

cellular organelles = details: loss of bound water; cited from earlier work
haemoglobin = test: Spectral properties and gas exchange of dried haemoglobin; format: physicochemical; details: oxy and carboxy forms dried in the presence of trehalose
From the text: Many macromolecular functions require mobility of the macromolecule e.g. antibodies have to physically move into close proximity to their antigen in order for binding to occur through electrostatic and hydrophobic interactions. The same is true of enzymes binding their substrates. Minor molecular motion is also required for other macromolecular functions. Thus haemoglobin undergoes rotation and movement of certain amino acids during the reversible binding of oxygen and carbon dioxide. None of this molecular mobility is observed in the dry state.
In contrast, the fluorescence of R-phycoerythrin involves "movement" only on the sub atomic level. Absorption of light energy at low wavelengths e.g. (488 nm) causes electrons in the chromophores to shift to higher energy orbits. Fluorescence at longer wavelengths is due to the emission of photons when these electrons jump back to lower energy orbits. […] This method is therefore of great interest in the application of biological (and synthetic) macromolecules in new electronic applications. Examples include proton and electron pumping (such as is mediated, on exposure to light, by bacteriorhodopsin and rhodopsin). […]

[3] = molar basis; cited from earlier work
horseradish peroxidase = test: Preservation of dried horseradish peroxidase activity; format: biochemical; details: dried with or without trehalose; compared with alkaline phosphatase

For `OC[C@H]1O[C@H](OC[C@H]2O[C@H](O[C@]3(CO)O[C@H](CO)[C@@H](O)[C@@H]3O)[C@H](O)[C@@H](O)[C@@H]2O)[C@H](O)[C@@H](O)[C@H]1O` [raffinose, reference compound], the “% activity retained in HA titre” value (Rh D antigen) was 3.7% and the “difference from the untreated paper” value (rat IgG) was “No significant difference”.

With `OC[C@H]1O[C@@](CO)(O[C@H]2O[C@H](CO)[C@@H](O)[C@H](O)[C@H]2O)[C@@H](O)[C@@H]1O` [sucrose, reference compound] the “% activity retained in HA titre” value (Rh D antigen) was 11.1% and the “difference from the untreated paper” value (rat IgG) was “No significant difference”.

For `O=C[C@H](O)[C@@H](O)[C@H](O)[C@H](O)CO` [glucose, reference compound], the “% activity retained in HA titre” value (Rh D antigen) was 1.2%.

With `OC[C@H]1O[C@H](O[C@H]2O[C@H](CO)[C@@H](O)[C@H](O)[C@H]2O)[C@H](O)[C@@H](O)[C@@H]1O` [Trehalose, α-D-glucopyranosyl-α-D-glucopyranoside] the fluorescence after storage (R-phycoerythrin) was “without loss of fluorescence”, the “% activity retained in HA titre” value (Rh D antigen) was 100% and the “maximum preservation of activity” value (Rh D antigen; human antibody, 2.5% final trehalose, dried at 37° overnight) was 100%. For the same compound, the change in titre (Rh D antigen; human antibody, 5% final trehalose concentration) was “slight decrease in titre”, the “final concentration of trehalose at maximum preservation” value (Rh D antigen; human antibody, at the drying stage) was 2.5% and the “trehalose concentration preserving maximal activity” value (A blood group substance) was “above 1%”. For the same compound, the “trehalose concentration preserving maximum activity” value (B blood group substance) was “above 0.5%”, the “Titre (cups)” value (rat IgG immunoglobulin; Dried + Trehalose (5% w/v, 37°, 48 hr)) was 7 and the “antibody activity of whole serum preserved” value (rat IgG immunoglobulin; dried with trehalose) was 100%. The brilliantly fluorescent cells (rat lymphocytes) was 75%, the “fading of fluorescent cells” value (rat lymphocytes) was “did not fade” and the “fading of labelled cells on repeated examination” value (rat lymphocytes; several weeks) was “no detectable fading”. For the same compound, the “retention of enzyme activity” value [1] was “Full retention of activity”, the complement activity preserved ([2]; 25% serum, trehalose 0.15M and above) was 100% and the complement activity preserved ([2]; 50% normal serum, trehalose 0.22M and above) was 100%. For the same compound, the “prevention of loss of complement activity” value ([2]; dried with trehalose and reconstituted) was “completely prevented”, the “inhibition by high concentrations of trehalose” value ([2]; up to 0.5M, any concentration of serum) was “not inhibitory” and the “function of antibody or antigen coupled to fixed red cell membrane” value (fixed red cells) was “completely preserves the function of the antibody or antigen”. For the same compound, the “preservation and resuspension of fixed red cells” value (fixed red cells) was “completely preserves the fixed red cells themselves” and the “protection of cellular organelles compared with other carbohydrates” value (cellular organelles) was “significantly superior to other carbohydrates”.

With haemoglobin the “spectral properties after drying” value (haemoglobin) was “retain their spectral properties”.

With `OC[C@H]1O[C@H](O[C@H]2[C@H](O)[C@@H](O)C(O)O[C@@H]2CO)[C@H](O)[C@@H](O)[C@@H]1O` (mixture of isomers) [maltose, reference compound] the “% activity retained in HA titre” value (Rh D antigen) was 11.1%.

For R Phycoerythrin, the “brightness relative to fluorescein” value [3] is listed as 20 times.

With horseradish peroxidase the “retention of enzyme activity” value (horseradish peroxidase) was “Identical results”.
